The test can be described thus: Inhibition of Met-triggered cell scattering in HGF-stimulated MDCK cells preincubated for overnight before HGF challenge measured after 24 to 48 hrs.

Regarding `O=C(Cc1cc(C(F)(F)F)cc(C(F)(F)F)c1)NC(Cc1ccccc1)c1cn(-c2ccc(-c3cn4c(n3)sc3ccccc34)cc2)nn1` (centres undefined), the IC50 (usually the concentration that gives 50% inhibition) came out at 600 nM.

Consider `Cc1[nH]c(/C=C2\C(=O)Nc3ccc(S(=O)(=O)N(C)c4cccc(Cl)c4)cc32)c(C)c1C(=O)N1CCN(C)CC1` [(3Z)-N-(3-CHLOROPHENYL)-3-({3,5-DIMETHYL-4-[(4-METHYLPIPERAZIN-1-YL)CARBONYL]-1H-PYRROL-2-YL}METHYLENE)-N-METHYL-2-OXOINDOLINE-5-SULFONAMIDE], for which the half-inhibitory concentration (IC50) worked out at 200 nM.

As to `O=C(Cc1cc(C(F)(F)F)cc(C(F)(F)F)c1)N[C@H](Cc1ccccc1)C(=O)Nc1ccc(-c2cn3c(n2)sc2ccccc23)cc1`, half-maximal inhibition (IC50) was put at 200 nM.

In turn, `O=C(Cc1cc(C(F)(F)F)cc(C(F)(F)F)c1)N[C@@H](Cc1ccccc1)C(=O)Nc1ccc(-c2cn3c(n2)sc2ccccc23)cc1` yielded an IC50 of 200 nM.

The values are drawn from BindingDB's records for doi:10.1016/j.bmcl.2012.05.078 (University of Milan, 2012).
